Data: ChEMBL document CHEMBL1136128, “3-(2-Benzyloxyphenyl)isoxazoles and isoxazolines: synthesis and evaluation as CFTR activators” (Bioorg Med Chem Lett, 2003)

Tests used:
[1] = target: Cystic fibrosis transmembrane conductance regulator (Rattus norvegicus) (UniProt P34158); experiment: Percent activity against CFTR (cystic fibrosis transmembrane conductance regulator) in rat relative to UCCF-152(50 uM)
[2] = target: Cystic fibrosis transmembrane conductance regulator (Rattus norvegicus) (UniProt P34158); experiment: Percent activity against CFTR (cystic fibrosis transmembrane conductance regulator) in rat relative to genistein(50 uM)

Cystic fibrosis transmembrane conductance regulator (Rattus norvegicus), sequence (P34158 whole entry): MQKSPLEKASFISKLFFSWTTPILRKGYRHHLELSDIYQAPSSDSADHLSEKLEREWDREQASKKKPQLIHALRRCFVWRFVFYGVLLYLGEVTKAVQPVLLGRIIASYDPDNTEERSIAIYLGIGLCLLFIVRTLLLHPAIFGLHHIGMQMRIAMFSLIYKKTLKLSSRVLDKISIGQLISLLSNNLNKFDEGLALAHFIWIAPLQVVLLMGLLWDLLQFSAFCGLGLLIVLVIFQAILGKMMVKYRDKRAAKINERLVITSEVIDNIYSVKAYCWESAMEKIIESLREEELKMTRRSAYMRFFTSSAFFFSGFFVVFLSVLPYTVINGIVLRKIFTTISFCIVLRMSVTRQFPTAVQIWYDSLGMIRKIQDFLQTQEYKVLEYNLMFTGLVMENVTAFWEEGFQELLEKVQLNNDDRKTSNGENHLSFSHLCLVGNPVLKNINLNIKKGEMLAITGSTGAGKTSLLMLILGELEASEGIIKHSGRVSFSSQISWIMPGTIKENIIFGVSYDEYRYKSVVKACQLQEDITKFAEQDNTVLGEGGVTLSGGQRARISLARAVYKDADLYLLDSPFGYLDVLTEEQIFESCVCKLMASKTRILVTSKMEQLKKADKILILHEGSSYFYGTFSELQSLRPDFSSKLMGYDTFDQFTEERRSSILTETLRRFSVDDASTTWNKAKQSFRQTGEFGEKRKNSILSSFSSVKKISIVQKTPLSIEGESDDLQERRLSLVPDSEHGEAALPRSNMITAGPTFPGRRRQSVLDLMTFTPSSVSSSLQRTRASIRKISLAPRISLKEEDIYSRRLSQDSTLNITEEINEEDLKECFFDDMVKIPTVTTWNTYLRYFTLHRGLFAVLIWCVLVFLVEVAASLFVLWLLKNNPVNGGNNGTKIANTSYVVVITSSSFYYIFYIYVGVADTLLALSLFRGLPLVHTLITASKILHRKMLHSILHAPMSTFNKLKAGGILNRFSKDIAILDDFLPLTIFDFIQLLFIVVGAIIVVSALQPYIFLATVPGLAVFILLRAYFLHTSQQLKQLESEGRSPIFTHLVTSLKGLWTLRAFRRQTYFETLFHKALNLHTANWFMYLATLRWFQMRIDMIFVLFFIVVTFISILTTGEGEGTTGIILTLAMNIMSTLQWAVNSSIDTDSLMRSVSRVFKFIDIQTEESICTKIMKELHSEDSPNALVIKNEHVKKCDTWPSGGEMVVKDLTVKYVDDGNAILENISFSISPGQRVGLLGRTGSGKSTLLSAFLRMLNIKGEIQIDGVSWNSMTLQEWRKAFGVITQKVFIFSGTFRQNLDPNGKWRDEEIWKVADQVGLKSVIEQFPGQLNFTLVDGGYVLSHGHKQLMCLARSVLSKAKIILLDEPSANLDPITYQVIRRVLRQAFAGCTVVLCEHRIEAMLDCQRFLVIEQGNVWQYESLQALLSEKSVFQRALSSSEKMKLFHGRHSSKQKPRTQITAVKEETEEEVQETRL

Activity [1]	Activity [2]	SMILES
64%	–	COC(=O)C1CC(c2ccccc2OCc2ccc(OC)cc2)=NO1 (configuration not stated)
61%	–	COc1ccc(COc2ccccc2C2=NOC(CCl)C2)cc1 (configuration not stated)
48%	–	COC(=O)C1CC(c2ccccc2OCc2ccc(Br)cc2)=NO1 (configuration not stated)
29%	–	COc1cccc(COc2ccccc2C2=NOC(CO)C2)c1 (configuration not stated)
72%	–	COc1ccc(COc2ccccc2-c2cc(CCl)on2)cc1
58%	–	COc1cccc(COc2ccccc2C2=NOC(CCl)C2)c1 (configuration not stated)
31%	–	COc1cccc(COc2ccccc2-c2cc(CCO)on2)c1
45%	–	COc1cccc(COc2ccccc2-c2cc(CO)on2)c1
29%	–	COC(=O)C1CC(c2ccccc2OCc2cccc(OC)c2)=NO1 (configuration not stated)
45%	–	COc1ccc(COc2ccccc2-c2cc(CO)on2)cc1
46%	–	COc1ccc(COc2ccccc2-c2cc(CCO)on2)cc1
63%	–	COc1ccc(COc2ccccc2C2=NOC(CO)C2)cc1 (configuration not stated)

More lines, now with the values behind:

SMILES	Activity [1]	Activity [2]
OCc1cc(-c2ccccc2OCc2ccc(Br)cc2)no1	39%	–
COC(=O)C1CC(c2cc(Br)ccc2OCc2ccc(OC)cc2)=NO1 (configuration not stated)	41%	–
COCc1cc(-c2ccccc2OCc2ccc(Br)cc2)no1	10%	–
ClCc1cc(-c2ccccc2OCc2ccccc2)no1	–	55%
OCCc1cc(-c2ccccc2OCc2ccc(Br)cc2)no1	106%	–
COC(=O)c1cc(-c2ccccc2OCc2ccc(Br)cc2)no1	32%	–
COC(=O)c1onc(-c2ccccc2OCc2ccc(Br)cc2)c1C(=O)OC	21%	–
COc1ccc(COc2ccc(-c3cc(CCl)on3)cc2)cc1	3%	–
ClCc1cc(-c2ccccc2OCc2ccc(Br)cc2)no1	25%	–
COc1ccc(COc2cccc(-c3cc(CCl)on3)c2)cc1	2%	–
COc1ccccc1-c1cc(CCl)on1	8%	–
COc1ccccc1-c1cc(CO)on1	22%	–
CCCCc1cc(-c2ccccc2OCc2ccc(OC)cc2)no1	8%	–
COc1ccc(COc2ccc(Br)cc2-c2cc(CO)on2)cc1	30%	–
COc1ccc(COc2ccc(Br)cc2-c2cc(CCl)on2)cc1	9%	–
